{"source": "ChEMBL document CHEMBL5518172", "about": "“Discovery of hydroxamate as a promising scaffold dually inhibiting metallo- and serine-β-lactamases” (Eur J Med Chem, 2024)", "key": {"[1]": {"system": "Escherichia coli", "assay": "Synergistic antibacterial activity against Escherichia coli BL21 (DE3) harboring metallo-beta-lactamase IMP-1 assessed as decrease in bacterial colony at 128 microg/ml incubated for 12 hrs in presence of meropenem by imaging analysis", "format": "functional, organism-based", "details": "dose 128.0 µg/ml"}, "[2]": {"system": "Bacteria", "assay": "Inhibition of recombinant serine beta lactamase KPC-2 (unknown origin) expressed in Escherichia coli BL21 (DE3) cells using meropenem as substrate at 20 uM by spectrometric analysis relative to control"}, "[3]": {"system": "Bacteria", "assay": "Inhibition of recombinant serine beta lactamase OXA-48 (unknown origin) expressed in Escherichia coli BL21 (DE3) cells using meropenem as substrate at 20 uM by spectrometric analysis relative to control"}, "[4]": {"system": "Escherichia coli", "assay": "Synergistic antibacterial activity against Escherichia coli BL21 (DE3) harboring metallo-beta-lactamase IMP-1 assessed as meropenem MIC at 64 microg/ml measured after 16 hrs by CLSI protocol based broth microdilution method (reference value: 64 microg/ml)", "format": "functional", "details": "dose 64 µg/ml"}, "[5]": {"assay": "Cytotoxicity against mouse L929 cells assessed as cell viability upto 200 uM incubated for 48 hrs by CCK8 assay relative to control", "format": "toxicity, cell-based", "details": "read-out: Activity"}, "[6]": {"system": "Escherichia coli", "assay": "Antibacterial activity against Escherichia coli harboring serine beta-lactamase OXA-48 infected in Kunming mouse model assessed as reduction in bacterial load in spleen at 20 mg/kg, ip", "format": "functional, organism-based"}, "[7]": {"system": "Escherichia coli", "assay": "Synergistic antibacterial activity against Escherichia coli clinical isolate 10 assessed as decrease in bacterial colony at 128 microg/ml incubated for 12 hrs in presence of meropenem by imaging analysis", "format": "functional, organism-based", "details": "dose 128.0 µg/ml"}, "[8]": {"system": "Escherichia coli", "assay": "Synergistic antibacterial activity against Escherichia coli BL21 (DE3) harboring serine beta lactamase KPC-2 assessed as decrease in bacterial colony at 128 microg/ml incubated for 12 hrs in presence of meropenem by imaging analysis", "format": "functional, organism-based", "details": "dose 128.0 µg/ml"}, "[9]": {"assay": "Inhibition of recombinant metallo-beta-lactamase IMP-1 (unknown origin) expressed in Escherichia coli BL21 (DE3) cells using meropenem as substrate by spectrometric analysis", "parameters": "species or system Bacteria"}, "[10]": {"system": "Escherichia coli", "assay": "Synergistic antibacterial activity against Escherichia coli BL21 (DE3) harboring serine beta lactamase OXA-48 assessed as meropenem MIC at 64 microg/ml measured after 16 hrs by CLSI protocol based broth microdilution method (reference value: 1 microg/ml)", "format": "functional", "details": "dose 64 µg/ml"}, "[11]": {"system": "Escherichia coli", "assay": "Synergistic antibacterial activity against Escherichia coli BL21 (DE3) harboring NDM-1 assessed as decrease in bacterial colony at 128 microg/ml incubated for 12 hrs in presence of meropenem by imaging analysis", "format": "functional, organism-based", "details": "dose 128.0 µg/ml"}, "[12]": {"system": "Escherichia coli", "assay": "Synergistic antibacterial activity against Escherichia coli BL21 (DE3) harboring metallo-beta lactamase IMP-1 assessed as fold decrease in meropenem MIC at 64 microg/ml measured after 16 hrs by CLSI protocol based broth microdilution method", "format": "functional", "details": "dose 64 µg/ml"}, "[13]": {"assay": "Inhibition of recombinant serine beta lactamase OXA-48 (unknown origin) expressed in Escherichia coli BL21 (DE3) cells using meropenem as substrate by spectrometric analysis", "parameters": "species or system Bacteria"}, "[14]": {"system": "Escherichia coli", "assay": "Synergistic antibacterial activity against Escherichia coli BL21 (DE3) harboring serine beta lactamase OXA-48 assessed as decrease in bacterial colony at 128 microg/ml incubated for 12 hrs in presence of meropenem by imaging analysis", "format": "functional, organism-based", "details": "dose 128.0 µg/ml"}, "[15]": {"system": "Escherichia coli", "assay": "Synergistic antibacterial activity against Escherichia coli BL21 (DE3) harboring NDM-1 assessed as fold decrease in meropenem MIC at 64 microg/ml measured after 16 hrs by CLSI protocol based broth microdilution method", "format": "functional", "details": "dose 64 µg/ml"}, "[16]": {"biological_target": "Metallo-beta-lactamase type 2 (Bacteria, UniProt C7C422)", "sequence (C7C422 whole entry)": "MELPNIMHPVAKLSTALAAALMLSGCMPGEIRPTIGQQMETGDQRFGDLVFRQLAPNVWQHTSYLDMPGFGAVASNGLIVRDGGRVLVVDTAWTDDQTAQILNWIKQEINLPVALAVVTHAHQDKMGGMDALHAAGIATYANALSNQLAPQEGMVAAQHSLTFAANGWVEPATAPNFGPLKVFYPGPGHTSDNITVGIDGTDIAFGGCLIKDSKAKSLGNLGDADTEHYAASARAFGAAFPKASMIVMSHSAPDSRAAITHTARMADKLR", "assay": "Inhibition of recombinant NDM-1 (unknown origin) expressed in Escherichia coli BL21 (DE3) cells using meropenem as substrate by spectrometric analysis"}, "[17]": {"system": "Escherichia coli", "assay": "Synergistic antibacterial activity against Escherichia coli BL21 (DE3) harboring serine beta lactamase OXA-48 assessed as fold decrease in meropenem MIC at 64 microg/ml measured after 16 hrs by CLSI protocol based broth microdilution method", "format": "functional", "details": "dose 64 µg/ml"}, "[18]": {"system": "Escherichia coli", "assay": "Synergistic antibacterial activity against Escherichia coli harboring serine beta-lactamase OXA-48 infected in Kunming mouse model assessed as reduction in bacterial load in liver at 20 mg/kg, ip co-administered with 1 mg/kg of meropenem", "format": "functional, organism-based"}, "[19]": {"assay": "Inhibition of recombinant serine beta lactamase KPC-2 (unknown origin) expressed in Escherichia coli BL21 (DE3) cells using meropenem as substrate by spectrometric analysis", "parameters": "species or system Bacteria"}, "[20]": {"system": "Escherichia coli", "assay": "Synergistic antibacterial activity against Escherichia coli BL21 (DE3) harboring NDM-1 assessed as meropenem MIC at 64 microg/ml measured after 16 hrs by CLSI protocol based broth microdilution method (reference value: 256 microg/ml)", "format": "functional", "details": "dose 64 µg/ml"}, "[21]": {"system": "Escherichia coli", "assay": "Antibacterial activity against Escherichia coli harboring serine beta-lactamase OXA-48 infected in Kunming mouse model assessed as reduction in bacterial load in liver at 20 mg/kg, ip", "format": "functional, organism-based"}, "[22]": {"system": "Escherichia coli", "assay": "Synergistic antibacterial activity against Escherichia coli BL21 (DE3) harboring serine beta lactamase KPC-2 assessed as meropenem MIC at 64 microg/ml measured after 16 hrs by CLSI protocol based broth microdilution method (reference value: 16 microg/ml)", "format": "functional", "details": "dose 64 µg/ml"}}, "note": "The source made the active and inactive calls. The calls are words filed in the database; no cut-off is given here."}
{"compound": "CC(C)COC(=O)ONC(=O)CCC1CCCCC1", "values": [{"measurement": "Activity", "setting": "[1]", "result": "Active"}, {"measurement": "inhibition", "setting": "[2]", "result": "> 90", "unit": "%"}, {"measurement": "inhibition", "setting": "[3]", "result": "> 90", "unit": "%"}, {"measurement": "MIC", "setting": "[4]", "result": 32, "unit": "µg/mL"}, {"measurement": "viability at 48 h, up to 200 µM", "setting": "[5]", "result": "> 80", "unit": "%"}, {"measurement": "Activity", "setting": "[6]", "result": "inactive"}, {"measurement": "Activity", "setting": "[7]", "result": "Active"}, {"measurement": "Activity", "setting": "[8]", "result": "Active"}, {"measurement": "IC50", "setting": "[9]", "result": 4.49, "unit": "µM"}, {"measurement": "MIC", "setting": "[10]", "result": 0.063, "unit": "µg/mL"}, {"measurement": "Activity", "setting": "[11]", "result": "Active"}, {"measurement": "fold change (FC)", "setting": "[12]", "result": 2}, {"measurement": "IC50", "setting": "[13]", "result": 2.05, "unit": "µM"}, {"measurement": "Activity", "setting": "[14]", "result": "Active"}, {"measurement": "fold change (FC)", "setting": "[15]", "result": 2}, {"measurement": "IC50", "setting": "[16]", "result": 4.73, "unit": "µM"}, {"measurement": "fold change (FC)", "setting": "[17]", "result": 16}, {"measurement": "Activity", "setting": "[18]", "result": "Active"}, {"measurement": "IC50", "setting": "[19]", "result": 0.69, "unit": "µM"}, {"measurement": "MIC", "setting": "[20]", "result": 64, "unit": "µg/mL"}, {"measurement": "Activity", "setting": "[21]", "result": "inactive"}, {"measurement": "MIC", "setting": "[22]", "result": 16, "unit": "µg/mL"}]}
